Laboratory results: US9243227B2, “Cytotoxic T lymphocyte” (Mie University, priority 2004, dated 2016)

How the values were obtained:
[1] = tested on: CD8-positive cells of wild-type C57BL6 mice; experiment: IFN-gamma ELISPOT assay, same experiment in wild-type mice; type: cell-based, mouse; details: same experiment as in HHDA2402 mice
Method: (§1) A 96-well nitrocellulose ELISPOT plate (trade name: MAHA 54510, manufactured by Millipore Corporation) was incubated overnight with 2 μg/milliliter anti-mouse IFN-gamma mAb (trade name: clone R4-6A2, manufactured by PharMingen Company) at 4° C., to coat the plate. Each well was washed with phosphate buffered physiologic saline (PBS). The well after washing was blocked by incubation at 37° C. for 2 hours in FCS-containing RPMI1640 medium.
Fresh CD8-positive cells (1×10^5 cells/well) derived from the immunized mice and CD8-negative cells (1×10^6 cells/well) pulsed with various peptides were seeded to each well and regulated so as to have a final volume of 200 μl. Then, the cells were cultured at 37° C. for 22 hours. Thereafter, the cells were washed sufficiently with PBS containing 0.05 wt % Tween™ 20 (referred to as “PBS-Tween”). Two hundreds microliters of 1.25 μg/milliliter biotinylated anti-mouse IFN-gamma mAb (trade name, manufactured by PharMingen Company) was added to the cells after washing, and the cells were then cultured overnight at 4° C. The cells thus obtained were washed with PBS-Tween. One hundred microliters of 1 μg/milliliter streptavidin-alkaline phosphatase conjugate (trade name, manufactured by Mabtech Ltd.) was added to the cells after washing. […] Then, the plate was dried and spots were counted. […]

[2] = tested on: CD8-positive cells derived from immunized HHDA2402+/−β2m−/− mice; experiment: IFN-gamma ELISPOT assay (mice), gene gun-immunized HLA-A2402 transgenic mice; type: cell-based, mouse; details: HHDA2402 mice immunized twice by gene gun with plasmid of the parent antigen; CD8-negative cells pulsed with peptide as target cells; FIG. 1A-1C
Method: A DNA construct (HHDA2402) containing an HLA-A2402 leader sequence, human β2 microglobulin, HLA-A2402 α1 and α2 domains, an H-2D^b α3 transmembrane domain, and a cytoplasm domain was constructed. The resulting construct was cloned into an expression vector pcDNA 3.1 (manufactured by Invitrogen Corporation). The HHDA2402 construct (4 kb SalI-NotI fragment) was injected into fertilized eggs of C57BL/6 mice, to give HHDA2402-expressing mice. Then, the […] mice were bred with β2m−/− mice (manufactured by The Jackson Laboratory). The resulting HHDA2402+/−β2 m+/− were bred with β2m−/− mice to give HHDA2402+/−β2m−/− mice (referred to hereinafter as “HHDA2402 mice”).
Using Helios Gene Gun System (trade name, manufactured by Bio-Rad Laboratories, Inc.), gold particles coated with plasmid DNA were administered endoabdominally at a helium pressure of from 350 to 400 psi into HHDA2402 mice (6-to 8-week-old, female). The gold particles were prepared according to a manufacturer's manual. After 2 weeks, booster administration was carried out. After 1 week, spleen cells were collected.
One week after the final immunization, MACS system (trade name, manufactured by Mitlenyi Biotec) using CD8 alpha (Lyt 2) microbeads was used, to select CD8-positive T cells. The purity of the resulting T cell fraction analyzed by flow cytometry was 95% or more.
as §1
Fresh CD8-positive cells (1×10^5 cells/well) derived from the immunized mice and CD8-negative cells (1×10^6 cells/well) pulsed with various peptides were seeded to each well and regulated so as to have a final volume of 200 μl. Then, the cells were cultured at 37° C. for 22 hours. Thereafter, the cells were washed sufficiently with PBS containing 0.05 wt % Tween™ 20 (referred to as “PBS-Tween”). Two hundreds microliters of 1.25 μg/milliliter biotinylated anti-mouse IFN-gamma mAb (trade name, manufactured by PharMingen Company) was added to the cells after washing, and the cells were then cultured overnight at 4° C. The cells thus obtained were washed with PBS-Tween. One hundred microliters of 1 μg/milliliter streptavidin-alkaline phosphatase conjugate (trade name, manufactured by Mabtech Ltd.) was added to the cells after washing. Thereafter, the resulting mixture was incubated at room temperature for 90 minutes, to carry out reaction. The resulting product was washed with PBS-Tween and then stained with an alkaline phosphatase conjugate substrate kit (trade name, manufactured by Bio-Rad Laboratories, Inc.). Thereafter, the product after staining was washed with distilled water to terminate the reaction. Then, the plate was dried and spots were counted.
HHDA2402 mice were immunized with an expression plasmid carrying EB virus-derived EBNA 3A gene by a gene gun. After immunized twice, spleen-derived CD8+ T cells were prepared. CD8-negative cells pulsed with the EBNA 3A246-254 peptide were used as target cells, to carry out ELISPOT assay. […]

[3] = tested on: human bulk CTLs sensitized with mRNA-introduced autologous CD4+ PHA blast cells; experiment: IFN-γ ELISPOT assay (human) with peptide-pulsed T2A24 cells; type: cell-based
Method: On the 0th day, PHA (trade name: HA15, manufactured by Murex S.A.) was added to the medium in each well of the plate at a final concentration of 10 μg/milliliter. On the 3rd day, half amount of the medium was exchanged with the above medium containing IL-2 (20 U/milliliter) and IL-7 (40 ng/milliliter). Exchange of the medium was repeated every 3 days, whereby activated CD4-positive cells were obtained. The mRNA was introduced by electroporation into the activated CD4-positive cells at 14 to 28 days after culture was initiated. The resulting cells were used below as antigen-presenting cells.
MACS CD8 Microbeads (trade name, manufactured by Miltenyi Biotec) were used, to separate CD8+ T cells from PBMC. The number 5×10^5 cells of CD8+ T cells thus obtained were stimulated with radiation (30 Gy)-irradiated 1×10^5 mRNA-introduced CD4+ PHA blast cells in a 96-well round plate (manufactured by Nunc Corporation). After 7 days, the CD8+ T cells were stimulated again with radiation (30 Gy)-irradiated 1×10^5 mRNA-introduced CD4+ PHA blast cells, and then cultured in an IL-2 (20 IU/milliliter)-containing RPMI1640 medium for 7 days.
To amplify the sensitized CD8+ T cell group containing the antigen-specific CTLs, autologous LCLs (5×10^6 cells) into which the target antigen mRNA was introduced, autologous PBMCs (2.5×10^7 cells), and IL-2 (20 IU/milliliter) were added to the sensitized CD8+ T cell group. The resulting mixture was cultured in the absence of anti-CD3 antibody in a 25-milliliter flask (manufactured by Corning Incorporated).
A 96-well nitrocellulose ELISPOT plate (trade name: MAHA 54510, manufactured by Millipore Corporation) was coated by overnight incubation at 4° C. with 2 μg/milliliter antihuman IFN-γ mAb (trade name: 1-D1K). Each well was washed with PBS, and then blocked by incubation at 37° C. for 2 hours with RPMI1640 medium containing 10 wt % human AB serum. Effector cells (2×10^4 cells/well) and peptide-pulsed T2A24 cells (5×10^4 cells/well) were seeded to each well. […] Then, the plate was dried and spots were counted.

[4] = tested on: CD8+ cells from HLA-A2402-positive healthy normal volunteers; experiment: In vitro induction of human CTLs using CD8− PBMC pulsed with a peptide; type: cell-based; details: one stimulation with CD8-negative PBMC pulsed with 10 μM peptide; 10 days after mixed lymphocyte reaction in vitro
Method: The number 1×10^7 of CD8-negative PBMC were pulsed with 10 μM peptide by incubation at room temperature for 1 hour and at 37° C. in 5% CO2 for 1 hour, in 200 μl RPMI1640 medium containing 25 mM Hepes, 10 wt % inactivated human AB-positive serum, 2 mM L-glutamine, 100 U/milliliter penicillin, and 100 μg/milliliter streptomycin. The resulting cells were used as antigen-presenting cells. The number 5×10^5 of CD8+ T cells that were separated were then stimulated by incubation for from 10 to 12 days with 1×10^6 cells of the peptide-pulsed CD8− PBMC. On Days 1, 4 and 7, half amount of the medium was exchanged with fresh one, and human IL-2 (20 IU/milliliter) and IL-7 (50 ng/milliliter) were added thereto. Culturing for induction was conducted in 200 μl RPMI1640 medium (containing 25 mM Hepes, 10 wt % inactivated human AB serum, 2 mM L-glutamine, 100 U/milliliter penicillin, 100 μg/milliliter streptomycin). […]
In staining, sensitized CD8+ T cells were reacted with 20 μg/milliliter tetramer at 37° C. for 30 minutes, and then reacted with a tricolor anti-CD8 monoclonal antibody (trade name, Caltag Laboratories, Burlingame, Calif., USA) on ice for 15 minutes. After washing, the stained cells were analyzed by flow cytometry (trade name: FACSCalibur, manufactured by Becton Dickinson, and Company). […]

Sequence	peptide-specific CTL response in ELISPOT assay [1]	peptide-specific CTL response in ELISPOT assay (immunogenicity of peptide) [2]	IFN-γ ELISPOT reaction to T2A24 cells pulsed with peptide ([3]; MAGE-A4-specific bulk CTLs amplified with mRNA-introduced autologous LCL, autologous PBMC and IL-2, FIG. 2 panel B)	HLA-A2402+ healthy normal humans in whom SAGE715-723 HLA-A24 tetramer-positive T cells were detected [4]	IFN-γ release in ELISPOT with peptide-pulsed T2A24 as target cell ([3]; T2A24 pulsed with SAGE715-723, control HER263-71, FIG. 4C)	induction of peptide-specific bulk CTLs, IFN-γ ELISPOT ([3]; stimulation twice with CD4+ blast cells with truncated SAGE mRNA, T2A24 pulsed with peptide vs control peptide, FIG. 4A)
VYGEPRKLL (listed as Homo sapiens) [MAGE-A4239-247]	positive	positive	–	–	–	–
NYKRCFPVI (listed as Homo sapiens) [MAGE-A4143-151]	–	positive	reaction specific	–	–	–
RYSIFFDYM (Epstein-Barr virus) [EBNA3A246-254, reference compound]	–	peptide-specific CTLs were detected	–	–	–	–
LYKPDSNEF (listed as Homo sapiens) [SAGE776-784]	positive	positive	–	–	–	–
LYATVIHDI (listed as Homo sapiens) [SAGE715-723]	–	positive	–	three out of six	IFN-γ was released	specific bulk CTLs were inducted
